# Results: patent US9456604B2, “Herbicide composition” (Syngenta Crop Protection, LLC, priority 2008, dated 2016)
# Tests used:
# Format in all cases: in vivo
# [1] = test system: Ipomoea hederacea (IPOHE); assay: Greenhouse trial, effect of pH on selectivity: weed; conditions: early POST, 200 l/ha
# Procedure: (§1) A greenhouse trial was conducted to look at the effect of pH on the selectivity of an emulsifiable concentrate composition comprising compound B (compound of formula wherein R^1=methoxy-propyl and R^2═CHF2). Applications were made early POST using four corn varieties and eight weeds (Broad leaf weeds: Amaranthus retroflexus (AMARE), Ipomoea hederacea (IPOHE), Polygonum convolvulus (POLCO) Grasses: Digitaria sanuinalis (DIGSA), Echinochloa crus-galli (ECHCG), Eriochloa villosa (ERBVI), Panicum dichotomiflorum (PANDI), Setaria viridus (SETVI)). The spray volume applied was 200 l/ha. Phytotoxicity evaluations were made 8 days after application (DAA) and/or 28 DAA. Results are provided as % phytotoxicity observed wherein 0=no visible phytotoxicity to 100=complete phytotoxicity.
# [2] = test system: Echinochloa crus-galli (ECHCG); assay: as above; conditions: early POST, 200 l/ha
# Procedure: as §1
# [3] = test system: Eriochloa villosa (ERBVI); assay: as above; conditions: early POST, 200 l/ha
# Procedure: as §1
# Setaria viridus (SETVI) = assay: as above; conditions: early POST, 200 l/ha
# Procedure: as §1
# [4] = test system: Polygonum convolvulus (POLCO); assay: as above; conditions: early POST, 200 l/ha
# Procedure: as §1
# [5] = test system: Digitaria sanuinalis (DIGSA); assay: as above; conditions: early POST, 200 l/ha
# Procedure: as §1
# [6] = test system: Amaranthus retroflexus (AMARE); assay: as above; conditions: early POST, 200 l/ha
# Procedure: as §1
# [7] = test system: Panicum dichotomiflorum (PANDI); assay: as above; conditions: early POST, 200 l/ha
# Procedure: as §1
# corn = assay: Greenhouse trial, effect of pH on selectivity: four corn varieties; conditions: for % phytotoxicity observed, Corn "Cecilia" 8 DAA / % phytotoxicity observed, Corn "Lorenzo" 8 DAA / % phytotoxicity observed, Corn "Marista" 8 DAA / % phytotoxicity observed, Corn "Blizzard" 28 DAA / % phytotoxicity observed, Corn "Cecilia" 28 DAA / % phytotoxicity observed, Corn "Lorenzo" 28 DAA / % phytotoxicity observed, Corn "Marista" 28 DAA / % phytotoxicity observed, Corn "Blizzard" 8 DAA: early POST, 200 l/ha
# Procedure: as §1
compound,measurement,setting,value
COCCCc1nc(C(F)F)ccc1C(=O)C1C(=O)C2CCC(C2)C1=O (stereo not drawn) [Compound B],"% phytotoxicity observed, IPOHE 8 DAA","[1]; 100 g ai/ha, pH 3, 8 DAA",80%
same,"% phytotoxicity observed, IPOHE 8 DAA","[1]; 100 g ai/ha, pH 8, 8 DAA",85%
same,"% phytotoxicity observed, IPOHE 8 DAA","[1]; 200 g ai/ha, pH 3, 8 DAA",95%
same,"% phytotoxicity observed, IPOHE 8 DAA","[1]; 200 g ai/ha, pH 8, 8 DAA",90%
same,"% phytotoxicity observed, ECHCG 8 DAA","[2]; 100 g ai/ha, pH 3, 8 DAA",80%
same,"% phytotoxicity observed, ECHCG 8 DAA","[2]; 100 g ai/ha, pH 8, 8 DAA",95%
same,"% phytotoxicity observed, ECHCG 8 DAA","[2]; 200 g ai/ha, pH 3, 8 DAA",98%
same,"% phytotoxicity observed, ECHCG 8 DAA","[2]; 200 g ai/ha, pH 8, 8 DAA",95%
same,"% phytotoxicity observed, ERBVI 8 DAA","[3]; 100 g ai/ha, pH 3, 8 DAA",80%
same,"% phytotoxicity observed, ERBVI 8 DAA","[3]; 100 g ai/ha, pH 8, 8 DAA",98%
same,"% phytotoxicity observed, ERBVI 8 DAA","[3]; 200 g ai/ha, pH 3, 8 DAA",90%
same,"% phytotoxicity observed, ERBVI 8 DAA","[3]; 200 g ai/ha, pH 8, 8 DAA",98%
same,"% phytotoxicity observed, SETVI 8 DAA","Setaria viridus (SETVI); 100 g ai/ha, pH 3, 8 DAA",90%
same,"% phytotoxicity observed, SETVI 8 DAA","Setaria viridus (SETVI); 100 g ai/ha, pH 8, 8 DAA",90%
same,"% phytotoxicity observed, SETVI 8 DAA","Setaria viridus (SETVI); 200 g ai/ha, pH 3, 8 DAA",100%
same,"% phytotoxicity observed, SETVI 8 DAA","Setaria viridus (SETVI); 200 g ai/ha, pH 8, 8 DAA",98%
same,"% phytotoxicity observed, POLCO 8 DAA","[4]; 100 g ai/ha, pH 3, 8 DAA",80%
same,"% phytotoxicity observed, POLCO 8 DAA","[4]; 100 g ai/ha, pH 8, 8 DAA",70%
same,"% phytotoxicity observed, POLCO 8 DAA","[4]; 200 g ai/ha, pH 3, 8 DAA",95%
same,"% phytotoxicity observed, POLCO 8 DAA","[4]; 200 g ai/ha, pH 8, 8 DAA",90%
same,"% phytotoxicity observed, DIGSA 8 DAA","[5]; 100 g ai/ha, pH 3, 8 DAA",85%
same,"% phytotoxicity observed, DIGSA 8 DAA","[5]; 100 g ai/ha, pH 8, 8 DAA",85%
same,"% phytotoxicity observed, DIGSA 8 DAA","[5]; 200 g ai/ha, pH 3, 8 DAA",100%
same,"% phytotoxicity observed, DIGSA 8 DAA","[5]; 200 g ai/ha, pH 8, 8 DAA",95%
same,"% phytotoxicity observed, AMARE 8 DAA","[6]; 100 g ai/ha, pH 3, 8 DAA",98%
same,"% phytotoxicity observed, AMARE 8 DAA","[6]; 100 g ai/ha, pH 8, 8 DAA",95%
same,"% phytotoxicity observed, AMARE 8 DAA","[6]; 200 g ai/ha, pH 3, 8 DAA",100%
same,"% phytotoxicity observed, AMARE 8 DAA","[6]; 200 g ai/ha, pH 8, 8 DAA",98%
same,"% phytotoxicity observed, PANDI 8 DAA","[7]; 100 g ai/ha, pH 3, 8 DAA",98%
same,"% phytotoxicity observed, PANDI 8 DAA","[7]; 100 g ai/ha, pH 8, 8 DAA",98%
same,"% phytotoxicity observed, PANDI 8 DAA","[7]; 200 g ai/ha, pH 3, 8 DAA",100%
same,"% phytotoxicity observed, PANDI 8 DAA","[7]; 200 g ai/ha, pH 8, 8 DAA",100%
same,"% phytotoxicity observed, Corn ""Cecilia"" 8 DAA","corn; 100 g ai/ha, pH 3, 8 DAA",5%
same,"% phytotoxicity observed, Corn ""Lorenzo"" 8 DAA","corn; 100 g ai/ha, pH 3, 8 DAA",20%
same,"% phytotoxicity observed, Corn ""Marista"" 8 DAA","corn; 100 g ai/ha, pH 3, 8 DAA",5%
same,"% phytotoxicity observed, Corn ""Blizzard"" 28 DAA","corn; 100 g ai/ha, pH 3, 28 DAA",10%
same,"% phytotoxicity observed, Corn ""Cecilia"" 28 DAA","corn; 100 g ai/ha, pH 3, 28 DAA",10%
same,"% phytotoxicity observed, Corn ""Lorenzo"" 28 DAA","corn; 100 g ai/ha, pH 3, 28 DAA",25%
same,"% phytotoxicity observed, Corn ""Marista"" 28 DAA","corn; 100 g ai/ha, pH 3, 28 DAA",5%
same,"% phytotoxicity observed, Corn ""Cecilia"" 8 DAA","corn; 100 g ai/ha, pH 8, 8 DAA",5%
same,"% phytotoxicity observed, Corn ""Lorenzo"" 8 DAA","corn; 100 g ai/ha, pH 8, 8 DAA",20%
same,"% phytotoxicity observed, Corn ""Marista"" 8 DAA","corn; 100 g ai/ha, pH 8, 8 DAA",5%
same,"% phytotoxicity observed, Corn ""Blizzard"" 28 DAA","corn; 100 g ai/ha, pH 8, 28 DAA",10%
same,"% phytotoxicity observed, Corn ""Cecilia"" 28 DAA","corn; 100 g ai/ha, pH 8, 28 DAA",10%
same,"% phytotoxicity observed, Corn ""Lorenzo"" 28 DAA","corn; 100 g ai/ha, pH 8, 28 DAA",20%
same,"% phytotoxicity observed, Corn ""Marista"" 28 DAA","corn; 100 g ai/ha, pH 8, 28 DAA",5%
same,"% phytotoxicity observed, Corn ""Blizzard"" 8 DAA","corn; 200 g ai/ha, pH 3, 8 DAA",25%
same,"% phytotoxicity observed, Corn ""Cecilia"" 8 DAA","corn; 200 g ai/ha, pH 3, 8 DAA",20%
same,"% phytotoxicity observed, Corn ""Lorenzo"" 8 DAA","corn; 200 g ai/ha, pH 3, 8 DAA",30%
same,"% phytotoxicity observed, Corn ""Marista"" 8 DAA","corn; 200 g ai/ha, pH 3, 8 DAA",30%
same,"% phytotoxicity observed, Corn ""Blizzard"" 28 DAA","corn; 200 g ai/ha, pH 3, 28 DAA",20%
same,"% phytotoxicity observed, Corn ""Cecilia"" 28 DAA","corn; 200 g ai/ha, pH 3, 28 DAA",20%
same,"% phytotoxicity observed, Corn ""Lorenzo"" 28 DAA","corn; 200 g ai/ha, pH 3, 28 DAA",30%
same,"% phytotoxicity observed, Corn ""Marista"" 28 DAA","corn; 200 g ai/ha, pH 3, 28 DAA",15%
same,"% phytotoxicity observed, Corn ""Blizzard"" 8 DAA","corn; 200 g ai/ha, pH 8, 8 DAA",20%
same,"% phytotoxicity observed, Corn ""Cecilia"" 8 DAA","corn; 200 g ai/ha, pH 8, 8 DAA",20%
same,"% phytotoxicity observed, Corn ""Lorenzo"" 8 DAA","corn; 200 g ai/ha, pH 8, 8 DAA",25%
same,"% phytotoxicity observed, Corn ""Marista"" 8 DAA","corn; 200 g ai/ha, pH 8, 8 DAA",5%
same,"% phytotoxicity observed, Corn ""Blizzard"" 28 DAA","corn; 200 g ai/ha, pH 8, 28 DAA",10%
same,"% phytotoxicity observed, Corn ""Cecilia"" 28 DAA","corn; 200 g ai/ha, pH 8, 28 DAA",10%
same,"% phytotoxicity observed, Corn ""Lorenzo"" 28 DAA","corn; 200 g ai/ha, pH 8, 28 DAA",25%
same,"% phytotoxicity observed, Corn ""Marista"" 28 DAA","corn; 200 g ai/ha, pH 8, 28 DAA",5%
same,phytotoxicity observed in corn when applied at pH 8 rather than pH 3,"corn; pH 8 versus pH 3, greenhouse trial, Table C",significantly decreased
